Tests used:
[1] = system: primed WT BMDMs; test: sUA uptake assay in primed WT BMDMs; format: cell-based, mouse; details: sUA 100, 200 or 500 μM, 2 or 15 hr
Description: WT BMDMs were primed with 100 ng/mL ultrapure LPS for 4 hr. Then, the cells were washed twice with sterile PBS, and maintained in RPMI-1640 medium containing sUA (100, 200, or 500 μM) for 2 or 15 hr. Subsequently, the cells were washed twice with ice-cold sterile PBS to terminate uptake, 100 μL 5% ice-cold PCA was added into each well. The plates were placed on ice for 2 hr, then cell samples were collected and centrifuged at 15,000 rpm, 4°C for 10 min. The supernatant was used for subsequent handling and measurement (see LC-MS/MS analysis).

[2] = biological target: T1, recombinant human CD38 (hCD38) (Homo sapiens, UniProt P28907); test: CD38 cyclase activity, recombinant hCD38 (NGD substrate); format: biochemical; details: sUA 0–500 μM, Figure 1B
T1 construct: the commercial recombinant hCD38 without a transmembrane region was partially used in this study; purchased Sino Biological 10818-H08H
T1 sequence (P28907 43-300 limits assumed): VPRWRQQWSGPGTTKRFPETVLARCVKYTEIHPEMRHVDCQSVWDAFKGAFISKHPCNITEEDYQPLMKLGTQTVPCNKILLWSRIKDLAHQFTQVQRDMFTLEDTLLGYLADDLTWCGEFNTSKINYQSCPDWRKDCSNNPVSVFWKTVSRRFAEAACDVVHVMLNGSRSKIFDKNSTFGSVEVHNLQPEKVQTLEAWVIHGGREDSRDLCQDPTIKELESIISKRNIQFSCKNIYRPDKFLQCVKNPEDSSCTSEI
Description: The cyclase activity of CD38 was measured as previously described ([Higashida et al., 1999]; [Jin et al., 2007]). CD38 cyclase activity was measured using 60 μM NGD as a substrate in cyclase reaction buffer (100 mM KCl, 10 μM CaCl2, and 50 mM Tris-HCl, pH 6.6). Tissues were cut into pieces and suspended in the buffer (5 mM MgCl2, 10 mM Tris-HCl, pH 7.3) at 4°C for 30 min. Then, the suspension was homogenized on ice, and the supernatant was collected after centrifugation. To collect the crude membrane fractions, the supernatant was centrifuged at 105,000×g for 30 min. The final pellet was resuspended in 10 mM Tris-HCl solution (pH 6.6) for cyclase assay. Homogenates of THP-1 or A549 cells, and recombinant hCD38 were used directly for cyclase assays. The loading volume of enzyme was 4–20 μL, the total volume of reaction system was 3 mL. To detect enzyme inhibition, except when specified, the ligands were directly dissolved in cyclase reaction buffer before pH adjustment, after which, the pH was immediately adjusted to 6.6. […]
(§1) The reaction buffer for hydrolase or cyclase assays was excited at 300 nm, and fluorescence emission was measured every second at 410 nm by Shimazu RF-6000 spectrofluorometer. Hydrolase or cyclase activity was calculated from the linear portion of the time course by fitting a linear function to the data points recorded within 5 min.

[3] = biological target: T1, recombinant human CD38 (hCD38); test: CD38 hydrolase activity, recombinant hCD38 (ε-NAD+ substrate); format: biochemical; details: sUA 0–500 μM, Figure 1B
Description: The hydrolase activity of CD38 was measured according to a previous report ([de Oliveira et al., 2018]) with minor modifications. CD38 hydrolase activity was measured using 50 μM ε-NAD^+ as a substrate in hydrolase reaction buffer (250 mM sucrose, 40 mM Tris-HCl, pH 7.4). Briefly, cells or tissues were directly homogenized in blank reaction buffer on ice, and recombinant hCD38 was diluted in blank reaction buffer for subsequent assays. The tissue homogenates were centrifuged to collect the supernatant for enzyme assays. The loading volume of enzyme was 4–30 μL, the total volume of the reaction system was 3 mL. To detect enzyme inhibition, except when specified, the ligands were directly dissolved in hydrolase reaction buffer before pH adjustment, after which, the pH was immediately adjusted to 7.4. All reaction buffers, with or without ligands, were freshly prepared before each assay. For measurement of hydrolase activity, 3 mL reaction buffer containing enzyme, ε-NAD^+, and ligands at indicated concentrations was maintained at 37°C with constant stirring.
as §1

[4] = system: A549 cells; test: Intracellular NAD+ assay in A549 cells; format: cell-based, human; details: sUA 100 to 500 μM, 20 hr
Description: A549 cells were seeded in 24-well plates for NAD^+ assay. Briefly, when the confluence reached 80%, the culture medium in each well was discarded, and the cells were washed twice with sterile PBS and incubated in RPMI-1640 medium containing 1% FBS in the presence or absence of sUA (from 100 to 500 μM) for 20 hr. Then, the cells were washed twice with sterile PBS, after the second washing, PBS was completely removed and 100 μL 5% ice-cold perchloric acid (PCA) was added into each well. The plate was kept on ice for 2 hr, then cell samples were collected and centrifuged at 15,000 rpm, 4°C for 10 min. The supernatant was used for subsequent handling and measurement (see LC-MS/MS analysis).
As mentioned above, samples (cells, tissues, blood, or reaction buffer) were treated with ice-cold PCA, after extraction and centrifugation, the collected supernatant was appropriately diluted in 5% ice-cold PCA when applicable, and then was vortexed for 30 s and centrifuged at 15,000 rpm, 4°C for 5 min. […] All the samples after handling were immediately analyzed in this study without freezing and thawing.
The LC-MS/MS system consisted of a triple quadrupole LCMS-8050 (Shimadzu) and an LC-30A system (Shimadzu). […] NAD^+ and NMN were measured independently in this study, as their peaks were hardly separated within a short time.

Question: How did the sUA uptake [1] turn out when O=c1[nH]c(=O)c2[nH]c(=O)[nH]c2[nH]1 [sUA, uric acid] was run?
Answer: Its sUA uptake is “very low”.

Question: And the Ki [2]?
Answer: The Ki was 57.1 µM.

Question: What about the Ki [3] of the same compound?
Answer: Its Ki is 65.7 µM.

Question: And the “Intracellular NAD+” value [4]?
Answer: Its value is “boosted intracellular NAD^+”.
